pIC50: −log10 of the molar value.

For the assay, the target named is T1, TAK1-TAB1 (Homo sapiens, UniProt O43318).
T1 sequence (O43318 with tags, fused parts or gaps limits assumed): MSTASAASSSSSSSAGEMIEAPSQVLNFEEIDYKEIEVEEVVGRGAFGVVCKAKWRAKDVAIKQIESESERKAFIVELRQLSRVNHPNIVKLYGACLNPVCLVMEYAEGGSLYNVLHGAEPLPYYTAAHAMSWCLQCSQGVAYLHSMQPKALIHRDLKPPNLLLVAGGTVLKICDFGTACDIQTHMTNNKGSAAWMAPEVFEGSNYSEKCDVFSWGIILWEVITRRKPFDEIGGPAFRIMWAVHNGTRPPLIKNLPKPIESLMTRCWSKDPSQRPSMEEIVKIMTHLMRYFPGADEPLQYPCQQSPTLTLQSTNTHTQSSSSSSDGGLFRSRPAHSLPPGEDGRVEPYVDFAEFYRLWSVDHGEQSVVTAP
Put plainly: TAK1-TAB1 binding inhibitory potency (LanthaScreen competitive binding assay, kinase tracer-236). The settings on record: 10 nM TAK1-TAB1, 100 nM kinase tracer-236; read-out: TAK1-Tab Inhibition IC50. The source says: TAK1-TAB1 Binding Inhibitory Potency:
The ability of candidate compounds to interact with TAK1-TAB1 is quantitated by a competitive binding assay using the LanthaScreen technology developed by Life Technologies. This assay is based on the binding of a proprietary, Alexa Fluor® 647-labeled, ATP-competitive kinase inhibitor (kinase tracer-236) to the TAK1-TAB1 construct in presence of a europium-conjugated antibody, resulting in a FRET (fluorescence resonance energy transfer) signal. Displacement of the kinase tracer by compound results in a lower emission ratio upon excitation of the europium chelate. Candidate compounds are designed as potential irreversible inhibitors of TAK1-TAB1, capable of ligating to an active site cysteine residue. The time dependent nature of irreversible inhibition is investigated by performing the binding assay with and without a pre-incubation of compound and TAK1-TAB1.
The inhibitory potency of candidate compounds is measured in 20 mM HEPES pH 7.5, 10 mM MgCl2, 0.01% BSA, 0.0005% Tween-20, and 2% DMSO in the presence of 10 nM TAK1-TAB1, 2 nM Eu-anti-his antibody, and 100 nM kinase tracer-236 using a 384-well plate format. Background signal is defined in the absence of TAK1-TAB1 and uninhibited signal is defined in the presence of vehicle (2% DMSO) alone. Compounds were evaluated in an 11 point dose-response ranging from 20 μM to 0.34 nM. The binding assays are performed under two conditions to evaluate time dependence of inhibition. For the pre-incubation assay, TAK1-TAB1 and Eu-anti-his antibody are preincubated with compound or vehicle for two hours prior to the addition of kinase tracer. The non-preincubated assay is run in which TAK1-TAB1 and Eu-anti-his antibody are added to a mixture of compound and kinase tracer. IC50 values of compounds are determined using a 4 parameter logistical fit of emission ratio as a function of the concentration of compound. […]
One may read the pIC50 as −log10 of the IC50, conventionally taken in molar units. As for `O=C(Nc1c[nH]c2ncc(-c3ccccc3)cc12)C1=CCCC1` [Example 232, N-(5-phenyl-1H-pyrrolo[2,3-b]pyridin-3-yl)cyclopent-1-enecarboxamide], the pIC50 was less than 6.00.
In the case of `C=C(C)C(=O)Nc1c[nH]c2ncc(-c3ccccc3)cc12` [Example 233, N-(5-phenyl-1H-pyrrolo[2,3-b]pyridin-3-yl) methacrylamide], the pIC50 was less than 6.00.
Regarding `C/C=C/C(=O)Nc1c[nH]c2ncc(-c3ccccc3)cc12` [Example 235, (E)-N-(5-phenyl-1H-pyrrolo[2,3-b]pyridin-3-yl)but-2-enamide], the pIC50 was less than 6.00.
As for `C=CC(=O)Nc1c[nH]c2ncc(-c3ccccc3)cc12` [Example 236, N-(5-phenyl-1H-pyrrolo[2,3-b]pyridin-3-yl)acrylamide], the pIC50 was less than 6.00.
The same measure for `CC#CC(=O)Nc1c[nH]c2ncc(-c3ccccc3)cc12` [Example 237, N-(5-phenyl-1H-pyrrolo[2,3-b]pyridin-3-yl)but-2-ynamide]: no less than 6.00.
As to `C#CC(=O)Nc1c[nH]c2ncc(-c3ccccc3)cc12` [Example 238, N-(5-phenyl-1H-pyrrolo[2,3-b]pyridin-3-yl)propiolamide], the pIC50 is less than 6.00.
In the case of `O=C(/C=C/CO)Nc1c[nH]c2ncc(-c3ccccc3)cc12` [Example 239, (E)-4-hydroxy-N-(5-phenyl-1H-pyrrolo[2,3-b]pyridin-3-yl)but-2-enamide], the negative-log IC50 (pIC50) is no less than 6.00.
For the compound `CN(C)C/C=C/C(=O)Nc1c[nH]c2ncc(-c3ccccc3)cc12` [Example 241, (E)-4-(dimethylamino)-N-(5-phenyl-1H-pyrrolo[2,3-b]pyridin-3-yl)but-2-enamide], the negative logarithm of the IC50 (pIC50) was less than 6.00.
For `N#CC(C#N)=Cc1c[nH]c2ncc(-c3ccccc3)cc12` [Example 242, 2-((5-phenyl-1H-pyrrolo[2,3-b]pyridin-3-yl)methylene) malononitrile], the pIC50 is less than 6.00.
In the case of `NC(=O)/C=C/c1c[nH]c2ncc(-c3ccc(N4CCCC4)nc3)nc12` [Example 254, (E)3-(2-(6-(pyrrolidin-1-yl)pyridin-3-yl)-5H-pyrrolo[2,3-b]pyrazin-7-yl)acrylamide], the pIC50 was less than 6.00.
With `NC(=O)/C=C/c1c[nH]c2ncc(-c3cccnc3)nc12` [Example 255, (E)-3-(2-(pyridin-3-yl)-5H-pyrrolo[2,3-b]pyrazin-7-yl)acrylamide], the pIC50 is less than 6.00.
On to `CC(C)OC(=O)N1CCN(c2cnc3[nH]cc(/C=C/C(N)=O)c3c2)CC1` [Example 301, (E)-isopropyl 4-(3-(3-amino-3-oxoprop-1-en-1-yl)-1H-pyrrolo[2,3-b]pyridin-5-yl)piperazine-1-carboxylate], for which the negative logarithm of the IC50 (pIC50) was no less than 6.00.
As for `NC(=O)/C=C/c1c[nH]c2ncc(N3CCN(C(=O)Oc4ccccc4)CC3)cc12` [Example 302, (E)-phenyl 4-(3-(3-amino-3-oxoprop-1-en-1-yl)-1H-pyrrolo[2,3-b]pyridin-5-yl)piperazine-1-carboxylate], the negative logarithm of the IC50 (pIC50) is no less than 6.00.
In the case of `CC(=O)c1ccc(-c2cnc3[nH]cc(/C=C/C(N)=O)c3c2)cn1` [Example 303, (E)-3-(5-(6-acetylpyridin-3-yl)-1H-pyrrolo[2,3-b]pyridin-3-yl)acrylamide], the negative-log IC50 (pIC50) is no less than 6.00.
`CC(=O)c1cncc(-c2cnc3[nH]cc(/C=C/C(N)=O)c3c2)c1` [Example 304, (E)-3-(5-(5-acetylpyridin-3-yl)-1H-pyrrolo[2,3-b]pyridin-3-yl)acrylamide]: the negative-log IC50 (pIC50) is no less than 6.00.
`CC(C)(O)c1ccc(-c2cnc3[nH]cc(/C=C/C(N)=O)c3n2)cn1` [Example 305, (E)-3-(2-(6-(2-hydroxypropan-2-yl)pyridin-3-yl)-5H-pyrrolo[2,3-b]pyrazin-7-yl)acrylamide]: the pIC50 is no less than 6.00.
On to `CC(=O)c1cccc(-c2cnc3[nH]cc(/C=C/C(N)=O)c3n2)c1` [Example 306, (E)-3-(2-(3-acetylphenyl)-5H-pyrrolo[2,3-b]pyrazin-7-yl)acrylamide], for which the pIC50 is no less than 6.00.
Regarding `CC(=O)c1ccc(-c2cnc3[nH]cc(/C=C/C(N)=O)c3n2)cc1` [Example 307, (E)-3-(2-(4-acetylphenyl)-5H-pyrrolo[2,3-b]pyrazin-7-yl)acrylamide], the pIC50 is no less than 6.00.
With `CC(C)(O)c1cccc(-c2cnc3[nH]cc(/C=C/C(N)=O)c3n2)c1` [Example 308, (E)-3-(2-(3-(2-hydroxypropan-2-yl)phenyl)-5H-pyrrolo[2,3-b]pyrazin-7-yl)acrylamide] the figure was no less than 6.00; with `CC(C)(O)c1ccc(-c2cnc3[nH]cc(/C=C/C(N)=O)c3n2)cc1` [Example 309, (E)-3-(2-(4-(2-hydroxypropan-2-yl)phenyl)-5H-pyrrolo[2,3-b]pyrazin-7-yl)acrylamide], no less than 6.00; with `CCC(C)(O)c1ccc(-c2cnc3[nH]cc(/C=C/C(N)=O)c3c2)cc1` (stereo not drawn) [Example 310, (E)-3-(5-(4-(2-hydroxybutan-2-yl)phenyl)-1H-pyrrolo[2,3-b]pyridin-3-yl)acrylamide], no less than 6.00.
The same measure for `CC(C)(O)c1cncc(-c2cnc3[nH]cc(/C=C/C(N)=O)c3c2)c1` [Example 311, (E)-3-(5-(5-(2-hydroxypropan-2-yl)pyridin-3-yl)-1H-pyrrolo[2,3-b]pyridin-3-yl)acrylamide]: no less than 6.00.
Consider `CC(C)(O)c1ccc(-c2cnc3[nH]cc(/C=C/C(N)=O)c3c2)cn1` [Example 312, (E)-3-(5-(6-(2-hydroxypropan-2-yl)pyridin-3-yl)-1H-pyrrolo[2,3-b]pyridin-3-yl)acrylamide], for which the pIC50 was no less than 6.00.
The same measure for `CCC(=O)c1ccc(-c2cnc3[nH]cc(/C=C/C(N)=O)c3c2)c(C)c1` [Example 313, (E)-3-(5-(2-methyl-4-propionylphenyl)-1H-pyrrolo[2,3-b]pyridin-3-yl)acrylamide]: no less than 6.00.
With `CCC(=O)c1ccc(-c2cnc3[nH]cc(/C=C/C(N)=O)c3n2)c(C)c1` [Example 314, (E)-3-(2-(2-methyl-4-propionylphenyl)-5H-pyrrolo[2,3-b]pyrazin-7-yl)acrylamide] the figure was no less than 6.00.
As to `CC(=O)c1cc(-c2cnc3[nH]cc(/C=C/C(N)=O)c3c2)ccn1` [Example 315, (E)-3-(5-(2-acetylpyridin-4-yl)-1H-pyrrolo[2,3-b]pyridin-3-yl)acrylamide], the pIC50 was no less than 6.00.
Turning to `NC(=O)/C=C/c1c[nH]c2ncc(-c3cc(C(F)(F)F)cc(C(F)(F)F)c3)nc12` [Example 316, (E)-3-(2-(3,5-bis(trifluoromethyl)phenyl)-5H-pyrrolo[2,3-b]pyrazin-7-yl)acrylamide], the pIC50 was no less than 6.00.
With `CC(C)(O)c1cc(-c2cnc3[nH]cc(/C=C/C(N)=O)c3c2)ccn1` [Example 317, (E)-3-(5-(2-(2-hydroxypropan-2-yl)pyridin-4-yl)-1H-pyrrolo[2,3-b]pyridin-3-yl)acrylamide], the pIC50 is no less than 6.00.
With `NC(=O)/C=C/c1c[nH]c2ncc(-c3ccc(C(=O)C(F)(F)F)cc3)cc12` [Example 319, (E)-3-(5-(4-(2,2,2-trifluoroacetyl)phenyl)-1H-pyrrolo[2,3-b]pyridin-3-yl)acrylamide], the pIC50 is no less than 6.00.
As to `NC(=O)/C=C/c1c[nH]c2ncc(-c3ccc(N4CCCCC4)nc3)nc12` [Example 320, (E)-3-(2-(6-(piperidin-1-yl)pyridin-3-yl)-5H-pyrrolo[2,3-b]pyrazin-7-yl)acrylamide], the pIC50 was no less than 6.00.
As for `NC(=O)/C=C/c1c[nH]c2ncc(N3CC(NC(=O)C4CCCC4)C3)cc12` [Example 321, (E)-N-(1-(3-(3-amino-3-oxoprop-1-en-1-yl)-1H-pyrrolo[2,3-b]pyridin-5-yl)azetidin-3-yl) cyclopentane-carboxamide], the negative logarithm of the IC50 (pIC50) was no less than 6.00.
The same measure for `NC(=O)/C=C/c1c[nH]c2ncc(-c3ccc(C(O)c4nccs4)cc3)cc12` (stereo not drawn) [Example 322, (E)-3-(5-(4-(hydroxy(thiazol-2-yl)methyl)phenyl)-1H-pyrrolo[2,3-b]pyridin-3-yl)acrylamide]: no less than 6.00; for `NC(=O)/C=C\c1c[nH]c2ncc(-c3ccc(C(O)c4nccs4)cc3)cc12` (stereo not drawn) [Example 323, (Z)-3-(5-(4-(hydroxy(thiazol-2-yl)methyl)phenyl)-1H-pyrrolo[2,3-b]pyridin-3-yl)acrylamide]: no less than 6.00.

The record behind these values is US9499551B2, “Substituted pyrrolo[2,3-b]pyridines for treating cancer or inflammatory diseases” (Confluence Life Sciences, Inc., priority 2014, dated 2016).
